In paper PMC10815079, “α-L-Fucosidases from an Alpaca Faeces Metagenome: Characterisation of Hydrolytic and Transfucosylation Potential” (International Journal of Molecular Sciences, 2024):

Experiments:
Assay in all cases: p-nitrophenol release at […] nm, Michaelis-Menten fit
Assay type in all cases: biochemical, uncultured bacterium (alpaca faeces metagenome)
Details in all cases: 50 mM potassium phosphate pH 7.5, 20 °C
Fuc25D = test system: Fuc25D
Fuc25A = test system: Fuc25A
Fuc25E = test system: Fuc25E
Fuc25C = test system: Fuc25C

`C[C@@H]1O[C@@H](Oc2ccc([N+](=O)[O-])cc2)[C@@H](O)[C@H](O)[C@@H]1O` [pNP-αFuc] was tested, and the Km (Fuc25D) was 79.7 ± 8.6 µM, the Km (Fuc25A) was 334 ± 21.4 µM and the Km (Fuc25E) was 85.1 ± 12.9 µM. For the same molecule, the Km (Fuc25C) was 1400 ± 374 µM.
